Values quoted from earlier work as cited in patent publication US5770691A, “Discriminatory substrates for MMP hydrolysis” (Regents of the University of Minnesota, priority 1995, dated 1998).

Columns and labels:
[1] = target: T1, MMP-1 (Homo sapiens, UniProt P03956); settings: background, literature; cited from earlier work
T1 sequence (P03956 100-469): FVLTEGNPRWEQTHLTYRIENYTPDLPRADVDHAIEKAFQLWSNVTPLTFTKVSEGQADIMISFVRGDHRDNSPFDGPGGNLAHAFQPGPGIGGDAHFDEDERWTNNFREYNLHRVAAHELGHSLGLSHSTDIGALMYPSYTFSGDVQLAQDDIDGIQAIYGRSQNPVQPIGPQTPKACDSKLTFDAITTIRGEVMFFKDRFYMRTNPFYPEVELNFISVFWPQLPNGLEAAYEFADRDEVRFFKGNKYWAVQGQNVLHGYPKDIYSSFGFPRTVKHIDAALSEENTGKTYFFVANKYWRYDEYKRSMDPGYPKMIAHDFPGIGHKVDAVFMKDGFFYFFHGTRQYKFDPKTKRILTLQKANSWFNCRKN

[2] = target: MMP-9 (Homo sapiens, UniProt P14780); settings: background, literature; cited from earlier work
MMP-9, sequence (P14780 94-707, species assumed): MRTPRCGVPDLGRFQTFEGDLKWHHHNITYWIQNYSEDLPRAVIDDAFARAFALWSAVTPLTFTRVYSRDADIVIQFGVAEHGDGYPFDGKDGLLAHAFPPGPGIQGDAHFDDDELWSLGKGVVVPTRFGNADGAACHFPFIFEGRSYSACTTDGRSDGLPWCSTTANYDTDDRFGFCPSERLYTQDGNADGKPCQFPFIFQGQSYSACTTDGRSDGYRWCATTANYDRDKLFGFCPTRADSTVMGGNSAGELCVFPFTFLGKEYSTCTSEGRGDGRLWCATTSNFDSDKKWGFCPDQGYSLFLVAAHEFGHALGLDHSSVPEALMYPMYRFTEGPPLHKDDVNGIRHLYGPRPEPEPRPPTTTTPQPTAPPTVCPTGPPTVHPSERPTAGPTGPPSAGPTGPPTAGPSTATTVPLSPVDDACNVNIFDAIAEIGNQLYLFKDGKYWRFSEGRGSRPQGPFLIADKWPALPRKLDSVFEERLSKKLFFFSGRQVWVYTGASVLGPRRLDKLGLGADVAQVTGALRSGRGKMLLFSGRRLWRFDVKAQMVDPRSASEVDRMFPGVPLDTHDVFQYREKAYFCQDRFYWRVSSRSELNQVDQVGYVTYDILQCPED

## Dnp-Pro-Cha-Gly-Cys(CH3)-His-Ala-Lys(Nma)-NH2
[1]
  hydrolyzed by MMP-1: hydrolyzed
[2]
  hydrolyzed by MMP-9: hydrolyzed
